Laboratory results: patent US8815951B2, “Inhibitors of epoxide hydrolases for the treatment of inflammation” (The Regents of the University of California, priority 1996, dated 2014)
Several values for one entry are separate records, joined by “and”; a condition that tells them apart may be missing. Identical values can stand only once. Entries after “also recorded” stand apart in the source; their conditions may differ. Like-named read-outs stand apart in the source and are kept apart here.

How the values were obtained:
[1] = target: recombinant mouse sEH (MsEH) (Mus musculus (Mouse), UniProt P34914); assay: Spectrophotometric sEH inhibition assay (NEP2C substrate), recombinant mouse sEH; type: biochemical
Experimental: (§1) Recombinant mouse sEH (MsEH) and human sEH (HsEH) were produced in a baculovirus expression system as previously reported. […] The expressed proteins were purified from cell lysate by affinity chromatography. […] Protein concentration was quantified using the Pierce BCA assay using bovine serum albumin as the calibrating standard.
(§2) The mixture was incubated at 30° C. for 5 minutes. […] Assays were performed in quadruplicate.

Human sEH (HsEH) = Human sEH (HsEH) (Homo sapiens (Human), UniProt P34913); assay: Spectrophotometric sEH inhibition assay (NEP2C substrate), recombinant human sEH; type: biochemical
Experimental: as §1, §2

[2] = system: SHR (spontaneously hypertensive rat); assay: Systolic blood pressure by tail cuff in SHR; type: in vivo; conditions: for effect on blood pressure in the SHR: dose equimolar to 3 mg/kg DCU; for decrease in systolic blood pressure 6 hr after the dose / time by which blood pressure returned to baseline after the dose: single dose 3 mg/kg DCU or equimolar
Text: Animals. Male SHR and WKY rats 3-13 wks of age were purchased from Charles River Laboratories (Wilmington, Mass.) and housed in a controlled environment with 12 hr light/dark cycles and fed standard laboratory chow for □ 3 days before euthanasia. All animal use was approved by the University of California San Francisco Committee on Animal Research and followed the National Institutes of Health guidelines for the care and use of laboratory animals. For isolation of kidney subcellular fractions, rats were anesthetized with methoxyflurane, the abdominal cavities were opened, and the kidneys were perfused with ice-cold saline. Perfused kidneys were rapidly removed, the cortex and medulla dissected out and immersed in liquid nitrogen. All tissue was stored at −80° C. until preparation of microsomes. In some cases WKY and SHR rats were housed in metabolic cages for up to three days and urine was collected over triphenylphosphine in 24 hr intervals. The urine volume was noted and aliquots were stored at −80° C. prior to extraction and quantitation of DHETs and EETs. […] Systolic blood pressure was measured at room temperature by a photoelectric tail cuff system (Model 179, IITC, Inc., Woodland Hills, Calif.) for up to four days following the dose of inhibitor. Blood pressures are reported as the average of three separate readings over a 30 min period. […] Similar inhibition studies were carried out with equimolar doses of N-cyclohexyl-N′-dodecylurea, N-cyclohexyl-N′-ethylurea and dodecylaamine.

[3] = system: insect cell culture expressing rat mEH; assay: Toxicity of epoxide-containing xenobiotics in insect cell culture expressing rat mEH; type: cell-based
Text: The micosomal enzyme play a significant role in the metabolism of xenobiotics such as polyaromatic toxicants. Additionally, polymorphism studies have underlined a potential role of this enzyme in relation to several diseases, such as emphysema, spontaneous abortion and several forms of cancer. Inhibition of recombinant rat and human mEH can be obtained using primary ureas, amides, and amines. […].

Swiss Webster mice = assay: Leukotoxin/isoleukotoxin-induced death in mice; type: in vivo, mouse; conditions: pretreatment 400 mg/kg i.p. in corn oil, 30 minutes before leukotoxin/isoleukotoxin methyl esters 700 mg/kg i.v.
Experimental: Male Swiss Webster mice (25-28 g) were purchased from Simonsen, Gilroy, Calif. The animals had free access to water and food. […] After 30 minutes of the pretreatment, the mice were treated intravenously through the tail vein with a 1:1 mixture of leukotoxin/isoleukotoxin methyl esters in ethanol (700 mg/kg, 1.0 ml/kg).

CYP epoxygenase = assay: Renal microsomal arachidonic acid metabolism, CYP epoxygenase activity; type: biochemical, rat; conditions: concentrations up to 25 μM
Experimental: Renal microsomal arachidonic acid metabolism. Microsomes, cytosol, and S9 fractions were prepared from the renal cortex or outer medulla samples from a single animal as described previously (Kroetz, D. L. et al. Mol Pharmacol 52, 362-372 (1997), Su, P. et al. Am J Physiol 275, […]-438 (1998)). Reaction conditions for the in vitro determination of arachidonic acid epoxygenase activity, metabolite extraction and HPLC analysis were described in detail elsewhere (Su, P. et al. Am J Physiol 275, […]-438 (1998)).

CYP ω-hydroxylase = assay: Renal microsomal arachidonic acid metabolism, ω-hydroxylase activity; type: biochemical, rat; conditions: concentrations up to 25 μM
[4] = system: 14,15-EET hydrolysis in vivo (sEH), SHR; assay: Urinary DHET and EET excretion in SHR (GC-MS); set-up: species or system rat; conditions: 3 mg/kg i.p. daily, 24 hr urine after third dose, vehicle 2020
WKY rats = assay: Systolic blood pressure by tail cuff in WKY rats; type: in vivo, rat; conditions: single 3 mg/kg dose
Text: Animals. Male SHR and WKY rats 3-13 wks of age were purchased from Charles River Laboratories (Wilmington, Mass.) and housed in a controlled environment with 12 hr light/dark cycles and fed standard laboratory chow for □ 3 days before euthanasia. All animal use was approved by the University of California San Francisco Committee on Animal Research and followed the National Institutes of Health guidelines for the care and use of laboratory animals. For isolation of kidney subcellular fractions, rats were anesthetized with methoxyflurane, the abdominal cavities were opened, and the kidneys were perfused with ice-cold saline. Perfused kidneys were rapidly removed, the cortex and medulla dissected out and immersed in liquid nitrogen. All tissue was stored at −80° C. until preparation of microsomes. In some cases WKY and SHR rats were housed in metabolic cages for up to three days and urine was collected over triphenylphosphine in 24 hr intervals. The urine volume was noted and aliquots were stored at −80° C. prior to extraction and quantitation of DHETs and EETs. […] Systolic blood pressure was measured at room temperature by a photoelectric tail cuff system (Model 179, IITC, Inc., Woodland Hills, Calif.) for up to four days following the dose of inhibitor. Blood pressures are reported as the average of three separate readings over a 30 min period. […]

[5] = Table 2, MsEH […], read-out: Mouse sEH IC50
[6] = Table 1, MsEH […], read-out: Mouse sEH IC50
[7] = Table 1, HsEH 0.2 μM (text b16: […])
[8] = unpublished data, C. Morisseau and B. Hammock, 2000, read-out: IC50 with mouse sEH

Row | Compound | IC50 [1, 5] | IC50 (Human sEH (HsEH); Table 2, HsEH […]) | also measured
1 | [O-][S+](c1ccccc1)C1OC1c1ccc(-c2ccccc2)cc1 (racemic) [4-C6H5—C6H4 / C6H5 / S═O / ±] | 73 ± 5 µM | 70 ± 3 µM | –
2 | COC(c1ccccc1)C1OC1c1ccc(-c2ccccc2)cc1 (racemic) [4-C6H5—C6H4 / C6H5 / CH—OCH3 / ±] | 0.48 ± 0.05 µM | 1.36 ± 0.07 µM | –
3 | OC(c1ccccc1)C1OC1c1ccc(F)cc1 (racemic) [4-F-C6H4 / C6H5 / CH—OH / ±] | 72 ± 16 µM | 18 ± 2 µM | –
4 | O=C(Nc1ccc(Cl)cc1)NC1CCCCC1 [Compound 20] | – | – | IC50 [1, 6]: 0.19 ± 0.02 µM; IC50 (Human sEH (HsEH); [7]): 0.4 ± 0.05 µM
5 | CCCCCCCCCCCCN [dodecylamine, reference compound] | – | – | effect on blood pressure in the SHR [2]: no effect
6 | CC(O)C1OC1c1ccc([N+](=O)[O-])cc1 (racemic) [4-NO2—C6H4 / CH3 / CH—OH / ±] | 6.5 ± 0.2 µM | 39 ± 1 µM | –
7 | [O-][S+](c1ccccc1)C1OC1c1ccccc1 (racemic) [C6H5 / C6H5 / S—O / ±] | 2.3 ± 0.4 µM | 0.31 ± 0.02 µM | –
8 | O=C(c1ccccc1)C1OC1c1ccc(-c2c(F)c(F)c(F)c(F)c2F)cc1 (racemic) [4-C6F5—C6H4 / C6H5 / C═O / ±] | 0.14 ± 0.01 µM | 0.2 ± 0.01 µM | –
9 | OC(c1ccccc1)C1OC1c1ccccc1 (racemic) [C6H5 / C6H5 / CH—OH / ±] | 12.6 ± 0.9 µM | 22 ± 2 µM | –
10 | ON=C(c1ccccc1)C1OC1c1ccc(-c2ccccc2)cc1 (racemic) [4-C6H5—C6H4 / C6H5 / C═NOH / ±] | 42 ± 3 µM | 35 ± 1 µM | –
11 | Cc1ccc(C(=O)C2OC2c2ccc(-c3ccccc3)cc2)cc1 (racemic) [4-C6H5—C6H4 / 4-CH3—C6H4 / C═O / ±] | 0.1 ± 0.01 µM | 0.19 ± 0.03 µM | –
12 | CCCCCCCCCCCCNC(=O)NC1CCCCC1 [N-cyclohexyl-N′-dodecylurea] | – | – | IC50 [1, 8]: 0.05 ± 0.01 µM; decrease in systolic blood pressure 6 hr after the dose ([2]; SHR): 12±2 mm Hg and 12 mm Hg; time by which blood pressure returned to baseline after the dose ([2]; SHR): ≤ 24 h
13 | COC(c1ccccc1)C1OC1c1ccccc1 (racemic) [C6H5 / C6H5 / CH—OCH3 / ±] | 103 ± 5 µM | 34 ± 1 µM | –
14 | O=[N+]([O-])c1ccc(C2OC2CO)cc1 (stereo not drawn) [4-NO2—C6H4 / H / CH—OH / S,S] | 1.6 ± 0.6 µM | – | –
15 | OC(c1ccccc1)C1OC1c1ccc(-c2ccccc2)cc1 (racemic) [4-C6H5—C6H4 / C6H5 / CH—OH / ±] | 0.51 ± 0.04 µM | 0.72 ± 0.03 µM | –
16 | CCNC(=O)NC1CCCCC1 [N-cyclohexyl-N′-ethylurea] | – | – | IC50 [1, 8]: 51.7 ± 0.7 µM; effect on blood pressure in the SHR [2]: no effect
17 | O=C(c1ccccc1)C1OC1c1ccccc1 (racemic) [C6H5 / C6H5 / C═O / ±] | 2.9 ± 0.3 µM | 0.3 ± 0.1 µM | –

Row | Compound | IC50 [1, 5] | IC50 (Human sEH (HsEH); Table 2, HsEH […]) | also measured
18 | O=C(c1ccccc1)C1OC1c1ccc(F)cc1 (racemic) [4-F-C6H4 / C6H5 / C═O / ±] | 1.3 ± 0.3 µM | 0.3 ± 0.1 µM | –
19 | CCCCCCCCCCCCNC(=O)NC1CCCCC1 [Compound 297] | – | – | IC50 [1, 6]: 0.05 ± 0.01 µM
20 | O=[N+]([O-])c1ccc(C2OC2CO)cc1 (racemic) [4-NO2—C6H4 / H / CH—OH / ±] | 5 ± 1 µM | – | –
21 | CCCCCCCCCCCCNC(=O)CC1CCCCC1 [Compound 514] | – | – | IC50 [1, 6]: 0.27 ± 0.01 µM
22 | OCC1OC1c1ccccc1 (stereo not drawn) [C6H5 / H / CH—OH / R,R] | 1100 ± 23 µM | – | –
23 | CCCCCCCCNC(=O)NCCC [Compound 429] | – | – | IC50 [1, 6]: 0.38 ± 0.04 µM; IC50 (Human sEH (HsEH); [7]): 1.7 ± 0.4 µM
24 | O=C(Nc1ccc(O)cc1)NC1CCCCC1 [Compound 128] | – | – | IC50 [1, 6]: 0.79 ± 0.08 µM; IC50 (Human sEH (HsEH); [7]): 11.1 ± 0.8 µM
25 | CC(=O)C1OC1c1ccc([N+](=O)[O-])cc1 (racemic) [4-NO2—C6H4 / CH3 / C═O / ±] | 163 ± 11 µM | 269 ± 5 µM | –
26 | ON=C(c1ccccc1)C1OC1c1ccccc1 (racemic) [C6H5 / C6H5 / C═NOH / ±] | 3.5 ± 0.5 µM | 0.29 ± 0.01 µM | –
27 | CC(C)(C)CC(C)(C)NC(=O)NC1CCCCC1 [Compound 347] | – | – | IC50 [1, 6]: 0.07 ± 0.01 µM; IC50 (Human sEH (HsEH); [7]): 3.1 ± 0.07 µM
28 | O=C(Nc1ccc(Cl)c(Cl)c1)Nc1ccc(Cl)c(Cl)c1 [Compound 299] | – | – | IC50 [1, 6]: 0.7 ± 0.1 µM
29 | OCC1OC1c1ccccc1 (stereo not drawn) [C6H5 / H / CH—OH / S,S] | 2400 ± 46 µM | – | –
30 | CCCCCCCC/C=C/CCCCCCCC(N)=O [elaidamide] | – | – | effect on toxicity of epoxide-containing xenobiotics [3]: enhances the toxicity effects of epoxide-containing xenobiotics
31 | O=[N+]([O-])c1ccc(C2OC2CO)cc1 (stereo not drawn) [4-NO2—C6H4 / H / CH—OH / R,R] | 1200 ± 25 µM | – | –
32 | Cc1ccc(C(O)C2OC2c2ccc(-c3ccccc3)cc2)cc1 (racemic) [4-C6H5—C6H4 / 4-CH3—C6H4 / CH—OH / ±] | 0.09 ± 0.01 µM | 0.15 ± 0.02 µM | –
33 | O=C(NC1CCCCC1)NC1CCCCC1 [DCU, N,N′-dicyclohexylurea] | – | – | effect on animal death induced by leukotoxin/isoleukotoxin (Swiss Webster mice): either blocked the animal death induced by leukotoxin/isoleukotoxin or lengthened the lives of the mice; effect on CYP epoxygenase activity (CYP epoxygenase): no effect; effect on ω-hydroxylase activity (CYP ω-hydroxylase): no effect; excretion of total epoxygenase-derived products (EETs and DHETs) [4]: 1237 pg/mg creatinine; decrease in systolic blood pressure 6 hr after the dose ([2]; SHR): 22±4 mm Hg and 22 mm Hg; time by which blood pressure returned to baseline after the dose ([2]; SHR): ≤ 24 h; systolic blood pressure ([2]; SHR, three to five hr after the fourth daily 3 mg/kg dose, vehicle 128±5): 102±5 mm Hg; effect on blood pressure in the WKY (WKY rats): no effect; also recorded: unaffected
